Oligonucleotides are written 5' to 3', each unit as a sugar letter and its base; * is a phosphorothioate linkage, no mark a phosphodiester; rarer units and linkages stand in square brackets, end groups in braces. Plain capitals give the bases only. d = 2'-deoxy (DNA); {P} = phosphate
Assays:
[1] = system: Jurkat cells; assay: TUNEL assay in Jurkat cells; type: cell-based, human; conditions: 40 μM; 72 hours
Procedure: Cells were plated at a density of 180,000 cells/ml in RPMI 1640 medium supplemented with 3% FBS. Cells were treated with 40 μM of either of the oligonucleotides for 72 hours. Cells were then collected, washed and fixed for 30 minutes in 4% paraformaldehyde and then permeabilized with 0.1% Triton X-100 for 2 minutes. The TUNEL assay was carried out with components and instructions of the In Situ Cell Death Detection Kit using fluorescein-labeled dUTP from Boehringer Mannheim. TUNEL-positive cells were detected by FACS analysis and confocal microscopy. […] Uptake of the oligonucleotides was assessed in 5–10 μm sections with a Carl Zeiss LSM 510 confocal laser microscope. […] Fluorescence was measured on the FL-1 channel. […] Antibody Ab-6 (DO-1 clone, Oncogene Research Products, Cambridge, Mass.) detected p53; antibody KH95 (Santa Cruz Biotechnology, Inc., Santa Cruz, Calif.) detected E2F1; antibody Ab-4 (Oncogene Research products) detected p73. Phospho-p53 (serine 15) was detected using the #9284 polyclonal antibody and phospho-p95/Nbs1 (serine 343) was detected by a phospho-p95/Nbs1-specific polyclonal antibody, both antibodies from Cell Signaling Technology (Beverly, Mass.). p95/Nbs1 antibody (#NB-100-143, Novus Biologicals, Littleton, Colo.) and an actin antibody (I-19, Santa Cruz Biotechnology, Santa Cruz, Calif.) were also used. […]

[2] = system: E2F1, p73, Mart-1, tyrosinase, TRP-1 and gp-100; assay: Western blot of MM-AN melanoma cells; type: cell-based, human
Procedure: Proteins were analyzed by denaturing polyacrylamide gel electrophoresis (SDS-PAGE), using 10% polyacrylamide, and western blot analysis was done with an E2F1-specific monoclonal antibody (KH95 Santa Cruz Biotechnology, Santa Cruz, Calif.), and p73 analyzed using a polyclonal antibody (AB-4 from Oncogene Research Products, San Diego, Calif.). […] In order to determine the contribution of p73 to cell death, MM-AN melanoma cells were stably transfected with a dominant negative p73 (p73DN) (Irwin et al., Nature 402:645–648) construct or empty vector as a control (p73^DN-containing vector a gift from Dr. William Kaelin, Dana Farber Institute, Boston) and paired cultures were supplemented with 40 μM 11mer-1 or diluent alone, then harvested at 72 hours for FACS analysis. […] The above-mentioned differentiation markers are expressed in normal human melanocytes. It appears that the loss of expression of these antigens is a mechanism that a subset of human melanomas uses to escape immunosurveillance defenses. Several peptides from these antigens are targets of tumor infiltrating cytotoxic lymphocytes. Encouraging results have been obtained in vivo with different vaccination strategies using antigenic peptides from the above antigens.

**Q.** Which results are given for “pGTTAGGGTTAG (DNA {P}-dGdTdTdAdGdGdGdTdTdAdG) [SEQ ID NO: 5]”?
**A.** TUNEL fluorescence (FACS, confocal microscopy) [1]: an increase in fluorescence due to end-label incorporation; induction of E2F1 and p73 ([2]; 40 μM): the same pattern of induction for E2F1 and p73 as observed for Jurkat cells; differentiation markers Mart-1, tyrosinase, TRP-1 and gp-100 ([2]; 48–72 hours after treatment): upregulated

Source: US7033829B2, “Method to inhibit cell growth using oligonucleotides” (Trustees of Boston University, priority 2000, dated 2006)
